Test results as given in paper PMC12563520, “Asiatic Acid from Centella asiatica as a Potent EGFR Tyrosine Kinase Inhibitor with Anticancer Activity in NSCLC Cells Harboring Wild-Type and T790M-Mutated EGFR” (Biomolecules, 2025).
Where two headings read alike, the source gives them in different places. Each block holds one compound with its values, some of them ahead of it.

How the values were obtained:
[1] = system: p-Akt (Ser473) in A549 cells; experiment: Western blot of p-Akt, A549; type: cell-based, human; conditions: for p-Akt expression (fold), Mean: 24 h, vs DMSO
Method: (§1) Cells were plated at 200,000 cells/well in a 6-well plate and allowed to adhere for 24 h. They were then treated with the tested compound at varying concentrations for 24 h. For A549 cells, treatment was performed in serum-free medium for 24 h, followed by stimulation with 100 ng/mL human EGF for 10 min prior to harvesting. Cells were harvested by trypsinization, lysed in RIPA buffer [50 mM Tris-HCl (pH 7.4), 150 mM NaCl, 1% NP-40, 1% Na-deoxycholate, and 0.1% SDS] with protease and phosphatase inhibitors, and incubated on ice for 30 min. Lysates were centrifuged, and protein concentration was determined using the Bradford assay. Equal amounts (30 μg) were separated by 10% SDS-PAGE and transferred to a […] membrane (Immobilon®-P, Merck Millipore, Burlington, MA, USA). The membrane was blocked with 5% skim milk in 1X TBST and incubated overnight at 4 °C with primary antibodies (Table S2) diluted 1:1000 in 1% skim milk-TBST or 1% BSA-TBST. After washing, membranes were incubated at room temperature for 1 h with secondary antibodies—goat anti-Rabbit IgG or goat anti-Mouse IgG (Invitrogen, Waltham, MA, USA)—diluted 1:2000. Protein signals were detected using Luminata^TM Crescendo Western HRP Substrate (Merck Millipore) and imaged with an ImageQuant 800 system (GE Healthcare Bio-Sciences, Uppsala, Sweden). The auto exposure mode was selected to automatically adjust the exposure time to prevent image saturation. The detected signal was quantified using Image Studio Lite (version 5.2, LICORbio^TM, Lincoln, NE, USA).

A549 cells [2] = experiment: MTT cell viability assay, A549; type: cell-based; conditions: Homo sapiens, 72 h, mean ± SEM (n = 3)
Method: (§2) Cells were seeded in a 96-well plate at 1,500 cells/well and incubated at 37 °C for 24 h. After incubation, the culture medium was replaced with fresh medium containing various concentrations of asiatic acid. Cells treated with 0.8% (v/v) DMSO served as the vehicle control. After 72 h, cells were incubated with 100 μL of MTT solution (0.5 mg/mL in PBS) for 4 h at 37 °C. The solution was then removed, 100 μL of DMSO was added, and the plate was protected from light with gentle agitation for 15 min. Absorbance was recorded at 540 nm using a Sunrise microplate reader (Tecan Group Ltd., Männedorf, Switzerland).

wild-type EGFR = biological target: T1, wild-type EGFR (Homo sapiens, UniProt P00533); experiment: ADP-Glo kinase assay, wild-type EGFR; type: biochemical; conditions: mean ± SEM (n = 3), read-out: IC50 kinase inhibition, Wild-Type EGFR
T1 construct: purchased Sigma-Aldrich SRP0239

[3] = system: cleaved PARP (Asp214) in A549 cells; experiment: Western blot of cleaved PARP, A549; type: cell-based, human; conditions: for cleaved PARP expression (fold), Mean: 24 h, vs 0 μM
Method: as §1

H1975 cells [4] = experiment: MTT cell viability assay, H1975; type: cell-based; conditions: Homo sapiens, NCI-H1975
Method: as §2

L858R/T790M EGFR = biological target: T2, L858R/T790M EGFR (Homo sapiens, UniProt P00533, L858R/T790M); experiment: ADP-Glo kinase assay, double-mutant EGFR; type: biochemical; conditions: mean ± SEM (n = 3), read-out: IC50 kinase inhibition, L858R/T790M EGFR
T2 construct: purchased Sigma-Aldrich SRP0242
Method: The EGFR inhibitory activity of the tested compound was measured using the ADP-Glo^TM assay (Promega, WI, USA) according to a previous study [28]. […] For the positive control, 2 μL of DMSO was added in place of the tested compound. For the negative control, the EGFR enzyme was omitted and replaced with 5 μL of 1X kinase buffer. The plate was protected from light and incubated at room temperature for 1 h, followed by the addition of 5 μL ADP-Glo^TM reagent and a further 40-min incubation. To convert ADP to ATP, 10 μL of kinase detection reagent was added, followed by a 30-min incubation under the same conditions. ATP levels were then measured using a Varioskan LUX multimode microplate reader (Thermo Fisher Scientific, Waltham, MA, USA), and percent inhibition was calculated using Equation (1).(1) Inhibition activity %=positive − negative−sample −negative/positive−negative ×100
The IC50 of each compound was calculated using GraphPad Prism software (version 8.0.2, GraphPad Software, Inc., Boston, MA, USA).

[5] = system: p-Akt (Ser473) in H1975 cells; experiment: Western blot of p-Akt, H1975; type: cell-based, human; conditions: for p-Akt expression (fold), Mean: 24 h, vs DMSO
Method: as §1

[6] = biological target: T3, p-EGFR (Tyr1068) in H1975 cells (Homo sapiens, UniProt P00533, L858R/T790M); experiment: Western blot of p-EGFR, H1975; type: cell-based; conditions: H1975, 6.25–50 μM, dose-dependent
T3 construct: endogenous in cells; host or cells: H1975
Method: as §1, with “After washing, membranes were incubated at room temperature for 1 h with secondary antibodies—goat anti-Rabbit IgG or goat anti-Mouse IgG (Invitrogen, Waltham, MA, USA)—diluted 1:2000.” left out, “The auto exposure mode was selected to automatically adjust the exposure time to prevent image saturation.” left out

[7] = biological target: fibroblast growth factor receptor (FGFR); experiment: FGFR kinase inhibition (selectivity); type: biochemical
H1975 cells [8] = experiment: Annexin V/PI apoptosis assay by flow cytometry, H1975; type: cell-based, human; conditions: 24 h
Method: Cells were plated in a 6-well plate at a density of 200,000 cells/well and allowed to adhere overnight at 37 °C. The following day, cells were treated with increasing concentrations of asiatic acid for 24 h. […] After treatment, cells were harvested by trypsinization and centrifugation. […] Propidium iodide (PI; P3566; Invitrogen^TM, Waltham, MA, USA) was then added, and apoptotic populations were analyzed using a BD FACSCalibur flow cytometer (BD Biosciences, Heidelberg, Germany).

[9] = system: BEAS-2B normal lung epithelial cells; experiment: MTT cell viability assay, BEAS-2B; type: cell-based, human
Method: as §2

[10] = biological target: T4, p-EGFR (Tyr1068) in A549 cells (Homo sapiens, UniProt P00533); experiment: Western blot of p-EGFR, EGF-stimulated A549; type: cell-based; conditions: for p-EGFR expression (fold), Mean: A549, EGF-stimulated (+), vs DMSO (+)
T4 construct: endogenous in cells; host or cells: A549
Method: as §1

[11] = system: cleaved PARP (Asp214) in H1975 cells; experiment: Western blot of cleaved PARP, H1975; type: cell-based, human; conditions: for cleaved PARP expression (fold), Mean: 24 h, vs 0 μM
Method: as §1

[12] = system: p-ERK (Thr202/Tyr204) in H1975 cells; experiment: Western blot of p-ERK, H1975; type: cell-based, human; conditions: for p-ERK expression (fold), Mean: 24 h, vs DMSO
Method: as §1

A549 cells [13] = experiment: Annexin V/PI apoptosis assay by flow cytometry, A549; type: cell-based, human; conditions: 24 h
Method: Cells were plated in a 6-well plate at a density of 200,000 cells/well and allowed to adhere overnight at 37 °C. The following day, cells were treated with increasing concentrations of asiatic acid for 24 h. […] After treatment, cells were harvested by trypsinization and centrifugation. The cell pellets were stained with FITC-conjugated Annexin V (640945; BioLegend, San Diego, CA, USA) and incubated for 30 min at room temperature in the dark. Propidium iodide (PI; P3566; Invitrogen^TM, Waltham, MA, USA) was then added, and apoptotic populations were analyzed using a BD FACSCalibur flow cytometer (BD Biosciences, Heidelberg, Germany).

[14] = system: p-ERK (Thr202/Tyr204) in A549 cells; experiment: Western blot of p-ERK, A549; type: cell-based, human; conditions: for p-ERK expression (fold), Mean: 24 h, vs DMSO
Method: as §1

[15] = biological target: T5, EGFR protein in A549 cells (Homo sapiens, UniProt P00533); experiment: Cellular thermal shift assay (CETSA); type: binding; conditions: A549 cell lysates, 100 μM, 1 hour, heated at 40–60 °C, n = 2
T5 construct: endogenous in cells; host or cells: A549
Method: Figure S9. The cellular thermal shift assay. The stability of EGFR protein in A549 cells was assessed by treating cell lysates with either 0.2% DMSO or 100 μM asiatic acid for 1 hour. Following treatment, samples were heated at 40–60 °C for 3 minutes, rapidly cooled on ice for 10 minutes, and then centrifuged at 12,000 rpm at 4 °C for 30 minutes.
The supernatants were analyzed by Western blot, and relative band intensities were plotted against the corresponding heating temperatures. Data are expressed as mean ± […]
(1 picture or pasted object on this page, not shown here)

[16] = A549, 100 μM, listed as AS-PN005

IC50 (A549 cells [2]): 64.5 ± 2.49 µM | IC50 (wild-type EGFR): 0.035 ± 0.002 nM | IC50 (H1975 cells [4]; H1975, MTT, 72 h, mean ± SEM (n = 3), read-out: IC50 cell viability): 36.6 ± 0.86 µM | IC50 (L858R/T790M EGFR): 0.348 ± 0.055 nM | p-EGFR levels, in words [6]: significantly reduced | IC50 ([7]; Figure S8): 0.471 nM | selectivity for EGFR over FGFR ([7]; ratio of kinase IC50 values): approximately 13.5 fold | EGF-induced EGFR phosphorylation, in words ([10]; A549, 12.5–100 μM, concentration-dependent): significantly inhibited | p-EGFR expression (fold), Mean ([10]; 12.5 μM): 0.75 fold | p-EGFR expression (fold), Mean ([10]; 25 μM): 0.40 fold | p-EGFR expression (fold), Mean ([10]; 50 μM): 0.36 fold | p-EGFR expression (fold), Mean ([10]; 100 μM): 0.21 fold | thermal stability of EGFR protein (CETSA) [15]: markedly enhanced the stability
SMILES: C[C@H]1[C@H](C)CC[C@]2(C(=O)O)CC[C@]3(C)C(=CC[C@@H]4[C@@]5(C)C[C@@H](O)[C@H](O)[C@@](C)(CO)[C@@H]5CC[C@]43C)[C@H]12 [Asiatic acid, asiatic acid]
p-Akt expression (fold), Mean ([1]; A549, 12.5 μM): 0.454 fold | p-Akt expression (fold), Mean ([1]; A549, 25 μM): 0.393 fold | p-Akt expression (fold), Mean ([1]; A549, 50 μM): 0.336 fold | p-Akt expression (fold), Mean ([1]; A549, 100 μM): reducing these proteins more than erlotinib | p-Akt expression (fold), Mean [1, 16]: 0.147 fold | p-Akt levels compared to the vehicle control, in words ([1]; A549, 12.5–100 μM): significantly decreased | cleaved PARP expression (fold), Mean ([3]; A549, 25 μM): 3.12 fold | cleaved PARP expression (fold), Mean ([3]; A549, 50 μM): 4.42 fold | cleaved PARP expression (fold), Mean ([3]; A549, 100 μM): 6.86 fold | cleaved PARP (Asp214) levels, in words ([3]; A549, 25–100 μM, p < 0.0001): significant, concentration-dependent increase | viability at 100 µM (H1975 cells [4]; H1975, concentrations of ≥100 μM, read-out: cell viability): < 40% | p-Akt expression (fold), Mean ([5]; H1975, 6.25 μM): 0.747 fold | p-Akt expression (fold), Mean ([5]; H1975, 12.5 μM): 0.696 fold | p-Akt expression (fold), Mean ([5]; H1975, 25 μM): 0.605 fold | p-Akt expression (fold), Mean ([5]; H1975, 50 μM): 0.423 fold | p-Akt level, in words ([5]; H1975, 6.25–50 μM, p < 0.0001): significant, dose-dependent decrease | increase of apoptotic cell population relative to DMSO-treated group (H1975 cells [8]; H1975, 50 μM): about twofold | IC50 ([9]; Homo sapiens, BEAS-2B, 72 h, mean ± SEM (n = 3)): 184 ± 5.38 µM | cytotoxicity in BEAS-2B cells ([9]; concentrations ≤100 μM (12.5–100 μM)): no notable cytotoxicity | cleaved PARP expression (fold), Mean ([11]; H1975, 12.5 μM): 7.26 fold | cleaved PARP expression (fold), Mean ([11]; H1975, 25 μM): 9.99 fold | cleaved PARP expression (fold), Mean ([11]; H1975, 50 μM): 14.15 fold | cleaved PARP expression, in words ([11]; H1975, 12.5–50 μM, p < 0.0001): significantly elevated | p-ERK expression (fold), Mean ([12]; H1975, 6.25 μM): 0.755 fold | p-ERK expression (fold), Mean ([12]; H1975, 12.5 μM): 0.636 fold | p-ERK expression (fold), Mean ([12]; H1975, 25 μM): 0.566 fold | p-ERK expression (fold), Mean ([12]; H1975, 50 μM): 0.458 fold | p-ERK level, in words ([12]; H1975, 6.25–50 μM, p < 0.0001): significant, dose-dependent decrease | increase of apoptotic cell population relative to DMSO-treated group (A549 cells [13]; A549, 100 μM): approximately threefold | p-ERK expression (fold), Mean ([14]; A549, 12.5 μM): 0.427 fold | p-ERK expression (fold), Mean ([14]; A549, 25 μM): 0.402 fold | p-ERK expression (fold), Mean ([14]; A549, 50 μM): 0.294 fold | p-ERK expression (fold), Mean ([14]; A549, 100 μM): reducing these proteins more than erlotinib | p-ERK expression (fold), Mean [14, 16]: 0.103 fold | p-ERK levels compared to the vehicle control, in words ([14]; A549, 12.5–100 μM): significantly decreased

SMILES: C#Cc1cccc(Nc2ncnc3cc(OCCOC)c(OCCOC)cc23)c1 [Erlotinib, reference compound]
increase of apoptosis compared to the untreated group (A549 cells [13]; A549, 10 μM): approximately twofold

SMILES: C=CC(=O)Nc1cc(Nc2nccc(-c3cn(C)c4ccccc34)n2)c(OC)cc1N(C)CCN(C)C [Osimertinib]
viability at 3.125 µM (H1975 cells [4]; H1975, 3.125 μM, n = 3): 61.5% | viability at 6.25 µM (H1975 cells [4]; H1975, 6.25 μM, n = 3): 44.8% | viability at 12.5 µM (H1975 cells [4]; H1975, 12.5 μM, n = 3): 23.8% | viability at 25 µM (H1975 cells [4]; H1975, 25 μM, n = 3): 12.1% | viability at 50 µM (H1975 cells [4]; H1975, 50 μM, n = 3): 7.89% | viability at 100 µM (H1975 cells [4]; H1975, 100 μM, n = 3, read-out: Cell viability (%) Mean): 0.43% | IC50 (H1975 cells [4]; Table S1, n = 3, read-out: IC50 (μM) Mean, H1975 cell viability): 4.14 µM | increase of apoptosis compared to the untreated group (H1975 cells [8]; H1975, 5 μM): threefold
